Measurements: paper PMC6599891 (Journal of molecular biology, 2019)
Read-outs that look alike come from different tables or passages of the source.

Experiments:
[1] = biological target: T1, EmrE (Escherichia coli, UniProt P23895, S64V); assay: biochemical
[2] = biological target: EmrE (Escherichia coli, UniProt P23895); assay: [3H]-TPP+ saturation binding, purified protein in DDM
[3] = biological target: T1, EmrE; assay: biochemical; remark: listed apart in the source
[4] = biological target: EmrE (Escherichia coli, UniProt P23895, M21G); assay: biochemical
[5] = biological target: EmrE (Escherichia coli, UniProt P23895, G90V); assay: biochemical
[6] = biological target: EmrE (Escherichia coli, UniProt P23895, N102V); assay: biochemical
[7] = biological target: EmrE (Escherichia coli, UniProt P23895, A59L); assay: biochemical
[8] = biological target: EmrE (Escherichia coli, UniProt P23895, N102A); assay: biochemical
[9] = biological target: EmrE (Escherichia coli, UniProt P23895, I101G); assay: biochemical
[10] = biological target: the molecule itself; assay: 1H-15N TROSY-HSQC NMR (peak doubling of the asymmetric homodimer)

## C[P+](c1ccccc1)(c1ccccc1)c1ccccc1 [MeTPP^+]
[1]
  Kd: 60000 ± 10000 nM

## CC[P+](c1ccccc1)(c1ccccc1)c1ccccc1 [EtTPP^+]
[1]
  Kd: 11400 ± 100 nM

## c1ccc([P+](c2ccccc2)(c2ccccc2)c2ccccc2)cc1 [TPP^+]
[2]
  Kd: 0.8 ± 0.1 nM
[3]
  Kd: 1 ± 0.6 nM
[4]
  Kd: 4 ± 0.7 nM
[5]
  Kd: 5.3 ± 0.6 nM
[6]
  Kd: 1.2 ± 0.2 nM
[7]
  Kd: 23.4 ± 2.4 nM
[8]
  Kd: 2.3 ± 0.4 nM
[9]
  Kd: 2.6 ± 1.3 nM

B1: wild type EmrE (natural protein)
chain: MNPYIYLGGAILAEVIGTTLMKFSEGFTRLWPSVGTIICYCASFWLLAQTLAYIPTGIAYAIWSGVGIVLISLLSWGFFGQRLDLPAIIGMMLICAGVLIINLLSRSTPH
[10]
  binding result: binds

B2: EmrE I101G (natural protein)
chain: MNPYIYLGGAILAEVIGTTLMKFSEGFTRLWPSVGTIICYCASFWLLAQTLAYIPTGIAYAIWSGVGIVLISLLSWGFFGQRLDLPAIIGMMLICAGVLIGNLLSRSTPH
[10]
  binding result: binds

B3: EmrE N102A (natural protein)
chain: MNPYIYLGGAILAEVIGTTLMKFSEGFTRLWPSVGTIICYCASFWLLAQTLAYIPTGIAYAIWSGVGIVLISLLSWGFFGQRLDLPAIIGMMLICAGVLIIALLSRSTPH
[10]
  binding result: binds

B4: EmrE N102V (natural protein)
chain: MNPYIYLGGAILAEVIGTTLMKFSEGFTRLWPSVGTIICYCASFWLLAQTLAYIPTGIAYAIWSGVGIVLISLLSWGFFGQRLDLPAIIGMMLICAGVLIIVLLSRSTPH
[10]
  binding result: binds

B5: EmrE M21G (natural protein)
chain: MNPYIYLGGAILAEVIGTTLGKFSEGFTRLWPSVGTIICYCASFWLLAQTLAYIPTGIAYAIWSGVGIVLISLLSWGFFGQRLDLPAIIGMMLICAGVLIINLLSRSTPH
[10]
  binding result: binds

B6: EmrE A59L (natural protein)
chain: MNPYIYLGGAILAEVIGTTLMKFSEGFTRLWPSVGTIICYCASFWLLAQTLAYIPTGILYAIWSGVGIVLISLLSWGFFGQRLDLPAIIGMMLICAGVLIINLLSRSTPH
[10]
  binding result: binds

B7: S64V-EmrE (natural protein)
chain: MNPYIYLGGAILAEVIGTTLMKFSEGFTRLWPSVGTIICYCASFWLLAQTLAYIPTGIAYAIWVGVGIVLISLLSWGFFGQRLDLPAIIGMMLICAGVLIINLLSRSTPH
[10]
  binding result: binds
